Data taken from patent US9505730B2, “Mineralocorticoid receptor antagonists” (Merck Sharp & Dohme Corp., priority 2011, dated 2016).

Molecular target: T1, full-length human Mineralocorticoid Receptor (MR) (Homo sapiens, UniProt P08235)
T1 construct: host or cells: PathHunter CHO-K1 cells
T1 sequence (P08235 1-984): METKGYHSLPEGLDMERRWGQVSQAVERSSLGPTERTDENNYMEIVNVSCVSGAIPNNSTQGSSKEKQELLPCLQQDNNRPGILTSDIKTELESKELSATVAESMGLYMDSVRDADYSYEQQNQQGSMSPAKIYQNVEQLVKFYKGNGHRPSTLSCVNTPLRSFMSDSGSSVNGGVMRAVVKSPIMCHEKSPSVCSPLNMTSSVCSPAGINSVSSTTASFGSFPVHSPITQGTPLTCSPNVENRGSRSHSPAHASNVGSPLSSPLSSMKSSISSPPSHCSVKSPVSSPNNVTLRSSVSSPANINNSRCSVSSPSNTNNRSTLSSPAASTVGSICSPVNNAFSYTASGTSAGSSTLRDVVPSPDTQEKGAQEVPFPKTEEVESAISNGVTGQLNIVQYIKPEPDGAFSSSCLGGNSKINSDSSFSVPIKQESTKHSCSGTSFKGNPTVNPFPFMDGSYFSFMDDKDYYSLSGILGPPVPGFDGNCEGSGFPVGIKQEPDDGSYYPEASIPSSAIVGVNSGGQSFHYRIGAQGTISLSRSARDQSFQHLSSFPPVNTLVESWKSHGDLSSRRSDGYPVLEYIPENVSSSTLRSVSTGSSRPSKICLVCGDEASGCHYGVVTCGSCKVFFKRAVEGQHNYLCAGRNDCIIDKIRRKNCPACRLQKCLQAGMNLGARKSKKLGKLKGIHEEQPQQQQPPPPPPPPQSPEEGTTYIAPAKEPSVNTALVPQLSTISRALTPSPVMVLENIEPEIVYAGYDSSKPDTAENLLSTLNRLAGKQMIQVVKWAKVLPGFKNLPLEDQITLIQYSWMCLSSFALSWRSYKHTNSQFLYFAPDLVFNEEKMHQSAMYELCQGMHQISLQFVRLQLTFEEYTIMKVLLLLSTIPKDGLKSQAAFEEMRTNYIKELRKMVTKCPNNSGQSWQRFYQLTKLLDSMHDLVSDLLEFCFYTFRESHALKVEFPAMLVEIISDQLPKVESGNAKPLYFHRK
Assay: human MR NH Pro assay (PathHunter Protein:Protein interaction assay, MR antagonism)
Type: cell-based
Conditions: PathHunter CHO-K1 cells overexpressing human MR; aldosterone 0.3 nM; 6 hours at 37° C.; luminescence; read-out: IC50 rating
Experimental: The activity of the compounds of the present invention regarding mineralocorticoid receptor antagonism was evaluated using the following assay.
Assessment of Mr Potency in Hmr Nh Pro Assay
The human MR NH Pro assay is a commercially available PathHunter™ Protein: Protein interaction assay (DiscoveRx; http://www.discoverx.com/nhrs/prod-nhrs.php) that measures the ability of compounds to antagonize full-length human Mineralocorticoid Receptor (MR) binding to a coactivator peptide. PathHunter™ CHO-K1 cells that overexpress human MR (Cat #93-0456C2, Lot No: 09B0913) were cultured in growth media (F12K w/Glutamine and phenol red (Gibco 11765-047) supplemented with 10% HI FBS (Gibco 16000); 0.25 mg/ml Hygromycin in PBS (Invitrogen 10687-010, 50 mg/ml); 100 I.U./mL and 100 μg/mL Pen/Strep (Gibco 15140-122); 0.6 mg/mL Geneticin).
Compounds were assessed for MR antagonist activity by incubating the cells with a titrating dose of compound in F12K w/Glutamine and phenol red culture media (Invitrogen 11765-047) supplemented with 1% Charcoal/Dextran Treated FBS (Hyclone #SH30068.01) and aldosterone (0.3 nM) for 6 hours at 37° C.
• F12K w/Glutamine and phenol red (Gibco 11765-047) • 10% HI FBS (Gibco 16000) • 0.25 mg/ml Hygromycin in PBS (Invitrogen 10687-010, 50 mg/ml) • 100 I.U./mL and 100 μg/mL Pen/Strep (Gibco 15140-122) • 0.6 mg/mL Geneticin (Gibco 10131, 50 mg/ml) 2. Assay media: • F12K w/Glutamine and phenol red (Invitrogen 11765-047) • 1% Charcoal/Dextran Treated FBS (Hyclone #SH30068.01) 3. 3× PathHunter Detection Reagents (Cat#93-0001) (need ˜6 ml/plate). […] Control Agonist: Aldosterone: Sigma cat #A9477 • Prepare stock solution—10 μM in DMSO kept at −20 C • for assay, dilute in assay media to 1.8 or 6 nM (6× of final concentration=about 0.3 nM to about 1.0 nM) 5. Cell line: PathHunter CHO-K1 MR cells Cat #93-0456C2, Lot No: 09B0913, from operation liquid nitrogen stock. 6. Control Antagonist: Spironolactone: Sigma #S-3378 and Eplerenone Sigma #107724-20-9 (10 mM stock concentration also prepared in DMSO and stored at −20° C.). Methods: Assay Set up and Calculations: • 1. Cells were grown in F12+FBS+Hygromycin+pen/strep+Genetin. • 2. Cells were collected with 0.05% trypsin and the cell suspension was spun and resuspended in a volume of F12+1.5% CD-FBS and counted. • 3. The cells were resuspended to 4×10^5 cells/mL. • 4. Cells were (25 μL/well) added to the wells of a 384 well plate. • 5. The plate was then incubated at 37° C. over night in a humidified incubator with 5% CO2. • 6. Test compounds were titrated starting at 4.4 mM, 10-point titration in 1:3 dilution. • 7. Aldosterone was diluted in assay media to 1.8 nM or 6 nM from 10 μM stock (final concentration to be about 0.3 nM to about 1.0 nM). Protocol for 384 well plate format: 6 hr treatment: • 1. Plated 10K exponentially growing cells/well (25 μL) resuspended in assay media to each well using the Multidrop (Thermo Electron). Use white wall, clear bottom assay plates (Costar #3570) and incubate overnight at 37° C., 5% CO2. • 2. 0.25 μL 120× test compound (final DMSO concentration should be <1%) was added to each well n=2, 10 point titrations starting at 36.7 μM final concentration. • 3. 5 μL 6× agonist (final aldosterone concentration should be about 0.3 nM to about 1.0 nM) was added to all wells using the PlateMate Plus.
(ThermoFisher) (except those wells in columns 23 and 24) • 4. 5 μL of assay media was added to all wells in column 23 and 24. • 5. Plates were incubated 6 hrs at 37° C., 5% CO2. • 6. 15 μL 3× DiscoveRx detection reagent was added to each well. • 7. Plates were incubated for 1 hour at room temperature (plates stored in the dark). • 8. Plates were read on Envision (PerkinElmer) luminesence plate reader and analyzed using ADA. LC/MS method: (LC2M_Low/Med_Positive mode). LC Conditions: 5-98% CH3CN/H2O+v 0.1% TFA over 1.25 min; Flow Rate=1.5 mL/min, UV wavelength 254 nm; Column: Waters XTerra® MS C18 3.5 μm 2.1×20 mm IS™

Q: With `C[C@H](c1ccccc1)N1C(=O)N[C@](Cc2ccccc2)(C(=O)N2CCc3ccccc3C2)C1=O` (single isomer, unassigned) [Compound 23] as the compound, how does the IC50 read?
A: 500 to 4500 nM

Q: With `COc1cc(CNC(=O)[C@@]2(Cc3ccccc3)OC(=O)N([C@H](C)c3ccccc3)C2=O)cc(OC)c1` [Compound 1, (5R)-Benzyl-N-(3,5-dimethoxybenzyl)-2,4-dioxo-3-[(1R)-1-phenylethyl]-1,3-oxazolidine-5-carboxamide] as the compound, how does the IC50 read?
A: < 100 nM

Q: Which IC50 does the source give for `C[C@H](c1ccc(F)cc1)N1C(=O)O[C@](Cc2ccc(F)cc2)(C(=O)NCc2ccc(Cl)c(Cl)c2)C1=O` [Compound 2, (5R)-N-(3,4-Dichlorobenzyl)-5-(4-fluorobenzyl)-3-[(1R)-1-(4-fluorophenyl)ethyl]-2,4-dioxo-1,3-oxazolidine-5-carboxamide] here?
A: 100 to 500 nM

Q: For `COc1cc(CNC(=O)[C@@]2(Cc3ccc(F)cc3)OC(=O)N([C@H](C)c3ccccc3)C2=O)cc(OC)c1` [Compound 3, (5R)-N-(3,5-Dimethoxybenzyl)-5-(4-fluorobenzyl)-2,4-dioxo-3-[(1R)-1-phenylethyl]-1,3-oxazolidine-5-carboxamide], which IC50 is on record?
A: 100 to 500 nM

Q: Which IC50 does the source give for `C[C@H](c1ccccc1)N1C(=O)O[C@](Cc2ccccc2)(C(=O)N[C@H]2C[C@H](c3ccccc3)C2)C1=O` [Compound 4, (5R)-5-Benzyl-2,4-dioxo-N-(trans-3-phenylcyclobutyl)-3-[(1R)-1-phenylethyl]-1,3-oxazolidine-5-carboxamide] here?
A: 100 to 500 nM

Q: For `COc1cc(CNC(=O)C2(Cc3cccc(Cl)c3)OC(=O)N([C@H](C)c3ccccc3)C2=O)cc(OC)c1` (stereo partly drawn) [Compound 5, 5-(3-Chlorobenzyl)-N-(3,5-dimethoxybenzyl)-2,4-dioxo-3-[(1R)-1-phenylethyl]-1,3-oxazolidine-5-carboxamide], which IC50 is on record?
A: 500 to 4500 nM

Q: With `COc1cc(CNC(=O)[C@@]2(Cc3ccccc3)OC(=O)N(C(C)C)C2=O)cc(OC)c1` [Compound 6, (5R)-5-Benzyl-N-(3,5-dimethoxybenzyl)-3-(1-methylethyl)-2,4-dioxo-1,3-oxazolidine-5-carboxamide] as the compound, how does the IC50 read?
A: 100 to 500 nM

Q: With `COc1cc(CNC(=O)[C@@]2(Cc3ccccc3)OC(=O)N(C3CCCc4ccccc43)C2=O)cc(OC)c1` (stereo partly drawn) [Compound 7, (5R)-5-Benzyl-N-(3,5-dimethoxybenzyl)-2,4-dioxo-3-(1,2,3,4-tetrahydronaphthalen-1-yl)-1,3-oxazolidine-5-carboxamide] as the compound, how does the IC50 read?
A: 100 to 500 nM

Q: For `COc1cc(CNC(=O)[C@@]2(Cc3ccccc3)OC(=O)N([C@H](C)c3ccc(F)cc3)C2=O)cc(OC)c1` [Compound 8, (5R)-5-Benzyl-N-(3,5-dimethoxybenzyl)-3-[(1R)-1-(4-fluorophenyl)ethyl]-2,4-dioxo-1,3-oxazolidine-5-carboxamide], which IC50 is on record?
A: < 100 nM

Q: Which IC50 does the source give for `COc1cc(CNC(=O)[C@@]2(Cc3ccccc3)OC(=O)N([C@H](C)c3ccc(Cl)cc3)C2=O)cc(OC)c1` [Compound 9, (5R)-5-Benzyl-3-[(1R)-1-(4-chlorophenyl)ethyl]-N-(3,5-dimethoxybenzyl)-2,4-dioxo-1,3-oxazolidine-5-carboxamide] here?
A: < 100 nM

Q: With `COc1cc(CNC(=O)[C@@]2(Cc3ccccc3)OC(=O)N([C@H](C)C3CCCCC3)C2=O)cc(OC)c1` [Compound 10, (5R)-5-Benzyl-3-[(1R)-1-cyclohexylethyl]-N-(3,5-dimethoxybenzyl)-2,4-dioxo-1,3-oxazolidine-5-carboxamide] as the compound, how does the IC50 read?
A: < 100 nM

Q: For `COc1cc(CNC(=O)[C@@]2(Cc3ccccc3)OC(=O)N([C@@H]3CCc4ccccc43)C2=O)cc(OC)c1` [Compound 11, (5R)-5-Benzyl-3-[(1R)-2,3-dihydro-1H-inden-1-yl]-N-(3,5-dimethoxybenzyl)-2,4-dioxo-1,3-oxazolidine-5-carboxamide], which IC50 is on record?
A: < 100 nM

Q: How did the IC50 turn out when `C[C@H](c1ccc(F)cc1)N1C(=O)O[C@](Cc2ccccc2)(C(=O)Nc2cccc(F)c2)C1=O` [Compound 13, (5R)-5-Benzyl-N-(3-fluorophenyl)-3-[(1R)-1-(4-fluorophenyl)ethyl]-2,4-dioxo-1,3-oxazolidine-5-carboxamide] was run?
A: 100 to 500 nM

Q: Which IC50 does the source give for `C[C@H](c1ccc(F)cc1)N1C(=O)O[C@](Cc2ccccc2)(C(=O)Nc2ccc(Cl)cc2)C1=O` [Compound 14, (5R)-5-Benzyl-N-(4-chlorophenyl)-3-[(1R)-1-(4-fluorophenyl)ethyl]-2,4-dioxo-1,3-oxazolidine-5-carboxamide] here?
A: 100 to 500 nM

Q: With `C[C@H](c1ccc(F)cc1)N1C(=O)O[C@](Cc2ccccc2)(C(=O)Nc2ccc(F)cc2)C1=O` [Compound 15, (5R)-5-Benzyl-N-(4-fluorophenyl)-3-[(1R)-1-(4-fluorophenyl)ethyl]-2,4-dioxo-1,3-oxazolidine-5-carboxamide] as the compound, how does the IC50 read?
A: 100 to 500 nM

Q: Which IC50 does the source give for `C[C@H](C1CCCCC1)N1C(=O)O[C@](Cc2ccc(F)cc2)(C(=O)Nc2ccc(Cl)cc2)C1=O` [Compound 16, (5R)-N-(4-Chlorophenyl)-3-[(1R)-1-cyclohexylethyl]-5-(4-fluorobenzyl)-2,4-dioxo-1,3-oxazolidine-5-carboxamide] here?
A: 100 to 500 nM

Q: With `C[C@H](C1CCCCC1)N1C(=O)O[C@](Cc2ccccc2)(C(=O)NCc2ccc(Cl)c(Cl)c2)C1=O` [Compound 17, (5R)-5-Benzyl-3-[(1R)-1-cyclohexylethyl]-N-(3,4-dichlorobenzyl)-2,4-dioxo-1,3-oxazolidine-5-carboxamide] as the compound, how does the IC50 read?
A: 100 to 500 nM

Q: Which IC50 does the source give for `C[C@H](c1ccc(F)cc1)N1C(=O)O[C@](Cc2ccccc2)(C(=O)NC(c2cccc(Cl)c2)C(F)(F)F)C1=O` (stereo partly drawn) [Compound 18, (5R)-5-Benzyl-N-[1-(3-chlorophenyl)-2,2,2-trifluoroethyl]-3-[(1R)-1-(4-fluorophenyl)ethyl]-2,4-dioxo-1,3-oxazolidine-5-carboxamide] here?
A: 100 to 500 nM
